Test results published in patent US20120010177A1, “MicroRNA Modulators and Method for Identifying And Using The Same” (The Wistar Institute / North Carolina State University, priority 2008, published 2012).
Where two headings read alike, the source gives them in different places.

Tested on: miR-21
Assay: High throughput primary miR-21 FLuc reporter assay (concentration-response)
Type: cell-based, human
Conditions: HeLa Luc-miR-21 reporter, 48-hour incubation, read-out: AC50
Description: Primary miR-21 Assay. The primary miR-21 FLuc reporter assay is carried out with HeLa cells expressing the Luc-miR-21 reporter using a 48-hour incubation time. Active compounds that increase the luciferase response are identified based upon inhibition of miR-21.
SAR. The concentration-response data for the entire high throughput screen is plotted and modeled by a four parameter logistic fit and SAR analysis is performed according to conventional approaches (Iglese, et al. (2006) Proc. Natl. Acad. Sci. USA […]:11473-8). In brief, Class 1.1 and 1.2 are full curves containing upper and lower asymptotes with efficacy ≧80% and <80%, respectively. Class 2.1 and 2.2 are incomplete curves having only one asymptote with efficacy ≧80% and <80%, respectively. Class 3 curves show activity at only the highest concentration or are poorly fit. […] For SAR analysis, compounds associated with Class 1 and 2.1 curves are clustered using LEADSCOPE® fingerprints. […] Compounds sharing a common scaffold form a series. Candidate series and singletons are chosen for follow up studies. For each lead or series, an appropriate library design method (e.g., point substitution library or matrix library) is selected. Typically, precursors are synthesized and a library of 15-25 compounds is produced for analysis in the above-described assays.

Row | SMILES | AC50 (Homo sapiens, HeLa, 48 h) | AC50
1 | Cc1cccc(-n2nnc(-c3nc(-c4cccs4)no3)c2N)c1C [Compound 9] | 0.09 µM | 
2 | Nc1c(-c2nc(-c3cccs3)no2)nnn1-c1cccc(F)c1 [Compound 10] | 0.21 µM | 
3 | Cc1cccc(-n2nnc(-c3nc(-c4cccs4)no3)c2N)c1 [Compound 11] | 0.33 µM | 
4 | Nc1c(-c2nc(-c3ccccc3Cl)no2)nnn1-c1ccccc1F [Compound 12] | 0.83 µM | 
5 | COc1cccc(-n2nnc(-c3nc(-c4cccs4)no3)c2N)c1 [Compound 13] | 1.04 µM | 
6 | Cc1ccc(-n2nnc(-c3nc(-c4cccs4)no3)c2N)cc1C [Compound 14] | 1.65 µM | 
7 | CCc1ccc(-n2nnc(-c3nc(-c4cccs4)no3)c2N)cc1 [Compound 15] | 1.17 µM | 
8 | COc1ccc(C)cc1-n1nnc(-c2nc(-c3ccccc3Cl)no2)c1N [Compound 16] | 4.65 µM | 
9 | COc1ccc(-n2nnc(-c3nc(-c4cccs4)no3)c2N)cc1 [Compound 17] | 0.58 µM | 
10 | COc1ccc(-c2noc(-c3nnn(-c4cc(C)ccc4C)c3N)n2)cc1 [Compound 18] | 1.47 µM | 
11 | CCc1cccc(-n2nnc(-c3nc(-c4cccs4)no3)c2N)c1 [Compound 19] | 1.65 µM | 
12 | Cc1cccc(-n2nnc(-c3nc(-c4ccccc4)no3)c2N)c1C [Compound 20] | 1.85 µM | 
13 | Cc1ccc(C)c(-n2nnc(-c3nc(-c4ccc(Cl)cc4)no3)c2N)c1 [Compound 21] | 1.31 µM | 
14 | Nc1c(-c2nc(-c3cccs3)no2)nnn1-c1ccccc1Cl [Compound 22] | 0.09 µM | 
15 | CCOc1ccccc1-n1nnc(-c2nc(-c3ccccc3)no2)c1N [Compound 23] | 3.69 µM | 
16 | COc1cccc(NC(=O)Cn2nnc(-c3nc(-c4ccccc4)no3)c2N)c1 [Compound 24] | 10.4 µM | 
17 | Nc1c(-c2nc(-c3cccs3)no2)nnn1-c1cccc(Cl)c1 [Compound 25] | 4.14 µM | 
18 | CCc1cccc(-n2nnc(-c3nc(-c4ccccc4Cl)no3)c2N)c1 [Compound 26] | 16.5 µM | 
19 | Cc1ccc(-c2noc(-c3nnn(CC(=O)Nc4cccc(C(F)(F)F)c4)c3N)n2)cc1 [Compound 27] | 0.74 µM | 
20 | O=c1ccc2ccc(OCc3nnc(-c4ccccc4Br)o3)cc2o1 [Compound 28] | 11.7 µM | 
21 | Cc1ccc(CNc2nc(-c3ccco3)nn2S(C)(=O)=O)cc1 [Compound 29] | 0.58 µM | 
22 | Cc1ccc(CNc2nc3nc(C)c(Cl)c(C)n3n2)cc1 [Compound 30] | 1.31 µM | 

Row | SMILES | AC50 (Homo sapiens, HeLa, 48 h) | AC50
23 | CC(C)c1ccc(CNc2nc(-c3ccco3)nn2C(=O)c2ccc([N+](=O)[O-])cc2)cc1 [Compound 31] | 2.07 µM | 
24 | COc1ccc(CNc2nc(-c3ccco3)nn2C(=O)CC(C)C)cc1 [Compound 32] | 5.85 µM | 
25 | CN(C)c1ccc(CNc2nc(-c3ccco3)nn2S(C)(=O)=O)cc1 [Compound 33] | 7.36 µM | 
26 | O=C(c1ccc([N+](=O)[O-])cc1)n1nc(-c2ccccc2)nc1NCc1ccccc1 [Compound 34] | 8.26 µM | 
27 | COc1ccccc1C(=O)n1nc(-c2ccco2)nc1NCc1ccc(Cl)cc1 [Compound 35] | 14.7 µM | 
28 | O=C(c1ccc(Cl)cc1)n1nc(-c2ccccc2)nc1NCc1ccco1 [Compound 36] | 14.7 µM | 
29 | Cc1ccc(-c2nc(NCc3ccco3)n(S(C)(=O)=O)n2)cc1 [Compound 37] | 14.7 µM | 
30 | COc1ccc(CNc2nc(-c3ccccc3)nn2C(=O)c2ccc([N+](=O)[O-])cc2)cc1 [Compound 38] | 14.7 µM | 
31 | COCC(=O)n1nc(-c2ccco2)nc1NCc1ccccc1Cl [Compound 39] | 16.5 µM | 
32 | O=C(c1cccc([N+](=O)[O-])c1)n1nc(-c2ccccc2)nc1NCc1ccccc1 [Compound 40] | 16.5 µM | 
33 | CCS(=O)(=O)n1nc(-c2ccccc2)nc1NCc1ccco1 [Compound 41] | 18.5 µM | 
34 | CC(=O)n1nc(-c2ccccc2)nc1NCc1cccs1 [Compound 42] | 18.5 µM | 
35 | CC(=O)c1cnc2nc(SCc3ccccc3)nn2c1C [Compound 43] | 5.21 µM | 
36 | c1ccc(CSc2nnc3ccc(-c4cccs4)nn23)nc1 [Compound 44] | 7.36 µM | 
37 | Cc1cc(C)n2nc(SCCOc3ccccc3)nc2n1 [Compound 45] | 7.36 µM | 
38 | Fc1cccc(Cl)c1CSc1nnc2ccccn12 [Compound 46] | 10.4 µM | 
39 | Cc1cc(C)n2nc(SCCOc3ccccc3F)nc2n1 [Compound 47] | 11.7 µM | 
40 | COc1ccc(-c2nc(SCc3ccccc3)n(S(C)(=O)=O)n2)cc1 [Compound 48] | 13.1 µM | 
41 | Cc1ccccc1OCCSc1nnc(C)n1-c1ccccc1 [Compound 50] | 14.7 µM | 
42 | Brc1ccc(CSc2nnc3ccccn23)cc1 [Compound 51] | 16.5 µM | 
43 | Cc1cc(C)n2c(SCc3ccccc3Cl)nnc2n1 [Compound 52] | 16.5 µM | 
44 | O=C(CCc1ccccc1)n1nc(-c2ccco2)nc1SCc1ccccc1 [Compound 53] | 18.5 µM | 

Row | SMILES | AC50 (Homo sapiens, HeLa, 48 h) | AC50
45 | Fc1ccccc1CSc1nnc(-c2cnccn2)n1Cc1ccco1 [Compound 54] | 20.8 µM | 
46 | Cc1ccc(C)c(-n2nnc(-c3nc(-c4ccc(Cl)cc4)no3)c2N)c1 [Compound 55] |  | 1.85 µM
47 | COc1ccc(-c2nn3c(C4CCCCC4)nnc3s2)cc1OC [Compound 56] | 3.29 µM | 
48 | COc1cccc(OC)c1-c1nn2c(-c3ccco3)nnc2s1 [Compound 57] | 11.7 µM | 
49 | COCCNC(=O)C(c1cccnc1)N(Cc1ccccc1)C(=O)Cn1nnc2ccccc21 (stereo not shown) [Compound 58] | 13.1 µM | 
50 | COc1nc(NCCO)nc(Nc2ccccc2F)n1 [Compound 59] | 4.65 µM | 
51 | Cc1nnc(SCc2nc(N)nc(Nc3ccccc3)n2)s1 [Compound 60] | 11.7 µM | 
52 | Cc1ccc(Nc2ncnc(N)n2)cc1C [Compound 61] | 13.1 µM | 
53 | Nc1nc(CSCc2ccccc2)nc(N2CCOCC2)n1 [Compound 62] | 14.7 µM | 
54 | COc1nc(Nc2cccc(C(F)(F)F)c2)nc(OC)n1 [Compound 63] | 14.7 µM | 
55 | Cc1ccccc1Nc1nc(N)nc(CSc2nnc3ccccn23)n1 [Compound 64] | 16.5 µM | 
56 | Nc1ncnc(Nc2ccc(F)c(Cl)c2)n1 [Compound 65] | 16.5 µM | 
57 | COc1ccc(Nc2nc(N)nc(CSc3nccc(C)n3)n2)cc1 [Compound 66] | 16.5 µM | 
58 | Nc1nc(Nc2ccccc2)nc(C(F)(F)F)n1 [Compound 67] | 16.5 µM | 
59 | Cc1c(Cl)cccc1Nc1nc(N)nc(CSC(=S)N2CCOCC2)n1 [Compound 68] | 18.5 µM | 
60 | Cc1ccccc1Nc1nc(N)nc(CCC(=O)c2ccc(O)cc2)n1 [Compound 69] | 18.5 µM | 
61 | COc1ccccc1Nc1nc(N)nc(CSc2nc(C)cc(C)n2)n1 [Compound 70] | 18.5 µM | 
62 | Cc1ccccc1Nc1nc(N)nc(CN(C)c2ccccc2)n1 [Compound 71] | 18.5 µM | 
63 | CCc1ccc2oc(C(=O)Nc3nonc3CC)c(C)c2c1 [Compound 72] | 2.93 µM | 
64 | CCc1nonc1NC(=O)c1oc2ccc(C)cc2c1C [Compound 73] | 5.85 µM | 
65 | CCc1nonc1NC(=O)c1oc2cc(C)c(C)cc2c1C [Compound 74] | 5.85 µM | 
66 | Cc1c(C(=O)N(C)C(C)c2ccccn2)oc2c(F)cccc12 (stereo not shown) [Compound 75] | 13.1 µM | 

Row | SMILES | AC50 (Homo sapiens, HeLa, 48 h) | AC50
67 | COCC1CCN(C(=O)c2oc3c(F)cccc3c2C)C1 (stereo not shown) [Compound 76] | 13.1 µM | 
68 | Cc1ccc2c(C)c(C(=O)N(C)C(C)c3ccncn3)oc2c1C (stereo not shown) [Compound 77] | 13.1 µM | 
69 | Cc1cc(Cl)c2oc(C(=O)N(CCO)Cc3ccccc3)c(C)c2c1 [Compound 78] | 14.7 µM | 
70 | CCc1nonc1NC(=O)c1oc2ccccc2c1C [Compound 79] | 14.7 µM | 
71 | Cc1cc(Cl)c2oc(C(=O)N[C@H]3CC[C@H](O)CC3)c(C)c2c1 [Compound 80] | 16.5 µM | 
72 | Cc1cc(C)c2c(N)c(C(=O)Nc3ccccc3F)sc2n1 [Compound 81] | 1.47 µM | 
73 | Nc1c(C(=O)Nc2ccccc2Br)sc2nc(-c3cccs3)ccc12 [Compound 82] | 7.36 µM | 
74 | Cc1cc(C)c2c(N)c(C(=O)Nc3ccccc3C(F)(F)F)sc2n1 [Compound 83] | 8.26 µM | 
75 | Nc1c(C(=O)Nc2cc(F)ccc2F)sc2nc(-c3cccc(O)c3)ccc12 [Compound 84] | 11.7 µM | 
76 | Nc1c(C(=O)Nc2ccc(S(=O)(=O)N3CCCC3)cc2)sc2nc3cc4c(cc3cc12)CCC4 [Compound 85] | 13.1 µM | 
77 | COCc1cc(C)nc2sc(C(=O)Nc3ccccc3O)c(N)c12 [Compound 86] | 13.1 µM | 
78 | Nc1c(C(=O)Nc2ccc(Cl)cc2F)sc2nc(-c3cccs3)ccc12 [Compound 87] | 16.5 µM | 
79 | CC(C)COc1ccc(C(=O)Nc2cc(-c3ccccc3)no2)cc1 [Compound 88] | 4.65 µM | 
80 | COC(=O)/C(=C/c1cccc([N+](=O)[O-])c1)NC(=O)c1ccc(OC)cc1 [Compound 89] |  | 5.21 µM
81 | COc1cccc(C(=O)NCCC2=CCCCC2)c1OC [Compound 90] | 5.85 µM | 
82 | O=C(Nc1ccc(-c2nc3ccccc3[nH]2)cc1)c1ccc2c(c1)OCO2 [Compound 91] | 6.56 µM | 
83 | COc1ccc(C(=O)Nc2nnc(C(C)C)s2)cc1OC [Compound 92] | 7.36 µM | 
84 | CCn1nnc2cc(C(=O)Nc3ccc(OC)cc3)ccc21 [Compound 93] | 11.7 µM | 
85 | CC(C)C(=O)Nc1nc2c(s1)CC(C(C)(C)C)CC2 (stereo not shown) [Compound 94] | 2.07 µM | 
86 | CC(C)(C)C1CCc2nc(NC(=O)Cc3cn4ccsc4n3)sc2C1 (stereo not shown) [Compound 95] | 8.26 µM | 
87 | O=C(CCc1ccccc1)Nc1cccnc1Cl [Compound 96] | 13.1 µM | 
88 | CC(=O)Nc1nc2c(C)cc(NC(=O)C3CCCCC3)cc2s1 [Compound 97] | 14.7 µM | 
